From patent publication US4824669A, “Formulations of coenzyme Q10 for intravenous use” (Board of Regents, The University of Texas System, priority 1987, dated 1989)
Read-outs that look alike come from different tables or passages of the source.

Assays:
[1] = blood CoQ10 levels expected after intravenous administration of CoQ10-fat emulsions; assay type: in vivo, human; conditions: i.v., control 5 mg
Experimental: The intravenous formulations of the present invention may be used, for example, to introduce 15 mg, 10 mg and 5 mg of CoQ10 into the total body blood volume by intravenous administration of about 500 ml containing 30 μg/ml, 15 μg/ml and 7.5 μg/ml, respectively, of CoQ10. On the basis that the control blood level of CoQ10 /total body volume is 5 mg, then the total body volume would contain 20 mg, 15 mg, and 10 mg, respectively, after the intravenous administration of the three formulations.
These three particular exemplary formulations of the present invention will allow the introduction of CoQ10 into the blood of patients to levels of 2, 3 and 4 μg/ml, respectively, for a total amount of CoQ10 /total body volume of blood of, for example, about 10, 15 and 20 mg, respectively.

[2] = solid particle dispersions in aqueous medium; cited from earlier work
[3] = blood levels on daily oral administration of CoQ10 capsules to patients; assay type: in vivo, human; conditions: if a blood level of 3 μg/ml of whole blood is achieved on oral therapy
Experimental: It is known from the existing clinical data from the daily oral administration of 100 mg of CoQ10 to patients (3 capsules of 33.3 mg each in soybean oil), that blood levels in the range of about 2-4 μg/ml whole blood may be achieved. These blood levels on daily oral administration of 3 capsules vary between about 1.5 and 4 μg/ml whole blood, depending upon the initial control level, the variation of oral absorption, patient compliance, etc. If a blood level of 3 μg/ml of whole blood is achieved on therapy, the amount of CoQ10 in the total blood volume would be about 15 mg. The gastrointestinal absorption of CoQ10 from 3 capsules/day is about 15% or 15-20% according to Lucker et al. (citation under Background of the Invention). However, as mentioned earlier herein, oral administration of CoQ10 is undependable and sometimes difficult.

[4] = oral, coronary artery by-pass graft surgery; Sunamori et al.; cited from earlier work
[5] = 100 mg daily (3 capsules of 33.3 mg in soybean oil), patients; cited from earlier work
[6] = soybean oil in soft gelatin capsules; cited from earlier work
[7] = oral, cited from earlier work; for absorption (in words): human subjects
[8] = visible separation / stability of CoQ10 in commercial fat emulsions; assay type: physicochemical
Experimental: A preferred technique of preparing formulations of the present invention involved adding 1 ml of a fat emulsion such as Intralipid, Liposyn, Soyacal, and Travemulsion to each of three tubes. With a microsyringe, 1 μl of soybean oil containing 30 μg, 15 μg and 7.5 μg of CoQ10, respectively, was added to each of the three tubes containing 1 ml the fat emulsion. The microliter of soybean oil containing these three amounts of CoQ10 was easily visible by the yellow color on the surface of the fat emulsion. The contents of these tubes were cooled to less than about 5° C. and were then sonicated for about 5 seconds in an ice bath. The sonicated CoQ10 -fat emulsion was then drawn into a first syringe through the syringe needle. The needle of the first syringe was then connected to the needle of a second syringe. The CoQ10 -fat emulsion was then passed back and forth through the needles from the first syringe to the second syringe, and this mixing was repeated about 10 times. The needles of the two syringes were connected through a rubber stopper or a tubing, which sufficed for this laboratory scale preparation.

[9] = clinical use; cited from earlier work

Compound: COC1=C(OC)C(=O)C(C/C=C(\C)CC/C=C(\C)CC/C=C(\C)CC/C=C(\C)CC/C=C(\C)CC/C=C(\C)CC/C=C(\C)CC/C=C(\C)CC/C=C(\C)CCC=C(C)C)=C(C)C1=O [CoQ10, 2,3-dimethoxy-5-methyl-6-decaprenyl benzoquinone]
- CoQ10 in total body blood volume after intravenous administration ([1]; about 500 ml containing 7.5 μg/ml): 10 mg
- CoQ10 in total body blood volume after intravenous administration ([1]; about 500 ml containing 30 μg/ml): 20 mg
- settling on standing [2]: particles containing CoQ10 fall to the bottom of the container
- amount of CoQ10 in the total blood volume [3]: about 15 mg
- tissue concentrations of CoQ10 (in words) [4]: failed to allow satisfactory tissue concentrations of CoQ10
- blood levels on daily oral administration [5]: 2-4 μg/ml whole blood
- stability in encapsulated soybean oil [6]: up to 6 years
- absorption (in words) [7]: very slow absorption
- absorption (in words) ([7]; listed as coenzyme Q10): slow and inefficient
- overall absorption of orally administered CoQ10 ([7]; human, Lucker et al.): 10-20%
- orally administered dose recovered from the feces ([7]; study period of 10 days): ≤ 62%
- separation of CoQ10 from the emulsion ([8]; 30, 15 and 7.5 μg/ml of commercial fat emulsion, sonicated and passed through syringe needles): did not visibly separate to the surface
- stability of emulsions at high CoQ10 level ([8]; CoQ10 levels above about 30 μg/ml): tend to be unstable
- stability of simple combination with commercial fat emulsion ([8]; simple combination of CoQ10 with one of the commercial fat emulsions): unstable formulations from which the CoQ10 would too readily separate
- clinical safety record [9]: clinical record of safety of over a decade
